These results are taken from patent US12515963B2, “Nanoparticle composition and method of inhibiting ovarian cancer cell viability” (priority 2019, dated 2026).

Read-outs that look alike come from different tables or passages of the source.

For experiment [1], the system named is vancomycin resistant Leuconostoc mesenteroides VKPM B-4177. Description: Minimum inhibitory concentration (MIC). The format is cell-based. The method, then:
(§1) Minimum inhibitory concentration (MIC) was determined to assess antibacterial and antifungal activities of the samples in microorganisms. MIC is the lowest concentration of a drug, which prevents visible growth of bacterium. The tested panel of microorganisms represent a very broad spectrum of microorganisms, including Gram-positive and Gram-negative strains (Staphylococcus aureus vs. Escherichia coli), methicillin resistant strain INA 00761 (Staphylococcus aureus), vancomycin resistant strain VKPM B-4177 (Leuconostoc mesenteroides), fungi strain INA 00760 (Aspergillus niger), and yeast strain RIA259 (Saccharomyces cerevisiae).
(§2) Minimum inhibitory concentration (MIC) was determined to assess the antibacterial potential of the compositions of Example 6 in microorganisms. MIC is the lowest concentration of a drug which prevents visible growth of bacterium. The tested panel of microorganisms represented a very broad spectrum of antibiotic resistant microorganisms. Sample 4-1 and Tetracycline (as control) were tested against multidrug-resistant Salmonella typhimurium DT 104. Sample 4-2 and Amoxicillin (as control) were tested against Bacillus subtilis. Sample 4-3 and Vancomycin (as control) were tested against vancomycin resistant Enterococcus type Van-A and also vancomycin resistant Leuconostoc mesenteroides VKPM B-4177. In all test conditions monometallic silver nanoparticle composition with Miramistin® alone (obtained using a process known in the art) were used as a control. This composition is referred to as “Ag-NPs-Myramistin in Table 8.

Experiment [2] has as its system Aspergillus niger INA 00760. Description: Minimum inhibitory concentration (MIC). The format is cell-based. The procedure: as §1
For experiment [3], the system named is Escherichia coli ATCC 25922. Description: Minimum inhibitory concentration (MIC). The format is cell-based. The procedure: as §1
For experiment [4], the system named is Saccharomyces cerevisiae RIA 259. Description: Minimum inhibitory concentration (MIC). The class given is cell-based. The procedure:
as §1

Experiment [5] has as its system Staphylococcus aureus FDA 209P. Description: Minimum inhibitory concentration (MIC). The format is cell-based. The method, then: as §1
The subject of experiment [6] is methicillin resistant Staphylococcus aureus INA 00761. Description: Minimum inhibitory concentration (MIC). The format is cell-based. The method, then: as §1
Experiment [7] deals with CRL-2945 (human ovarian carcinoma). As to the kind of experiment: Cancer cell viability (cytotoxic effect). The class given is cell-based. The conditions noted are these: CRL-2945, Doxorubicin column. The method, then: (§3) The cytotoxic effects of Samples 1-1 and 1-3 on cancer cells were studied in HCT-116 (human colon cancer cell lines), CRL-2945 (human ovarian carcinoma) and U-87 (human glioblastoma). Cell viability was analyzed in cells treated with different concentrations of Sample 1-1 and Sample 1-3. Nanoparticle samples were able to reduce viability in a dose-dependent manner. […] The doses were used to calculate IC50 value against the control cells (Table 3).
(§4) The cytotoxic effects of Samples 6-1, 6-2, 7-1 and 7-2, glucosamine and Metformin on cancer cells were studied in CRL-2945 (human ovarian carcinoma) and U-87 (human glioblastoma). The doxorubicin resistant CRL-2945 and U-87 cells were generated by exposing the cells to the cytotoxic drug at incrementally increasing concentrations. In this way, resistant sublines were obtained (CRL-2945-R and U-87-R). The cell viability was analyzed in cells treated with different concentrations of Sample 6-1, Sample 6-2, Sample 7-1 and Sample 7-2. The samples were able to reduce viability in a dose-dependent manner. […] The doses were used to calculate IC50 values against the control cells (Table 12).

Experiment [8] relates to U-87 (human glioblastoma). As to the kind of experiment: Cancer cell viability (cytotoxic effect). The format is cell-based. Particulars: U-87, Doxorubicin column. The method, then:
as §3, §4

The next experiment concerns CRL-2945-R. Description: Cancer cell viability (cytotoxic effect), doxorubicin resistant subline. The conditions noted are these: Homo sapiens, Doxorubicin column. The class given is cell-based. The procedure: as §4
In a further experiment the test system is U-87-R. The experiment is described as above. The format is cell-based. The conditions noted are these: Homo sapiens, Doxorubicin column. The procedure: as §4
Experiment [9] has as its system multidrug-resistant Salmonella typhimurium DT 104. Description: Minimum inhibitory concentration (MIC). The format is cell-based. Particulars: Salmonella enterica. The method, then: as §2
The test system of the next experiment is Bacillus subtilis. Description: Minimum inhibitory concentration (MIC). The class given is cell-based. The procedure: as §2
Experiment [10] concerns CRL-2945 and U-87 cancer cells. As to the kind of experiment: Activity of the drugs alone on cancer cells. The format is cell-based, human. Particulars: drug alone, data not shown. The procedure: as §4
Higher toxicity of Sample 6-2 can be explained by the fact that Sample 6-2 bears very toxic doxorubicin, which is delivered into the cells with nanoparticles. […] Cancer cells CRL-2945-R and U-87-R were cultured in serum-free media to enrich the populations with cancer stem cells. Thus, enriched cells were tested with the samples.

In general, MIC refers to the lowest concentration that inhibits growth of the organism. `CCCCCCCCCCCCCC(=O)NCCC[N+](C)(C)Cc1ccccc1.[Cl-]` [Miramistin ®, benzyl-dimethyl-[3-(tetradecanoylamino)propyl]ammonium chloride]: the MIC in [1] (Leuconostoc mesenteroides VKPM B-4177, read-out: MIC) was found to be 10 µg/mL; in [2] (INA00760, read-out: MIC) it was 20 µg/mL; in [3] (ATCC25922, read-out: MIC), 20 µg/mL; in [4] (RIA259, read-out: MIC), 20 µg/mL; in [5] (FDA209P, read-out: MIC) it was 5 µg/mL; in experiment [6] (read-out: MIC) it was 10 µg/mL.

A word on the IC50: it is the concentration that inhibits the measured activity by half. A high value points to weaker potency. With `COc1cccc2c1C(=O)c1c(O)c3c(c(O)c1C2=O)C[C@@](O)(C(=O)CO)C[C@@H]3O[C@H]1C[C@H](N)[C@H](O)[C@H](C)O1` [Doxorubicin], the IC50 in experiment [7] worked out at 130 nM; in [8], 80 nM; with CRL-2945-R, 280 nM; in the experiment with U-87-R, 1200 nM.

For the compound `O=[N+]([O-])[O-].[Ag+]` [Silver Nitrate, silver nitrate], the MIC in [1] (Leuconostoc mesenteroides VKPM B-4177) worked out at 5 µg/mL; in experiment [2], 20 µg/mL; in [3], 10 µg/mL; in [4], 10 µg/mL; in experiment [5], 20 µg/mL; in [6], 5 µg/mL.

Consider `CN[C@H](CC(C)C)C(=O)N[C@H]1C(=O)N[C@@H](CC(N)=O)C(=O)N[C@H]2C(=O)N[C@H]3C(=O)N[C@H](C(=O)N[C@H](C(=O)O)c4cc(O)cc(O)c4-c4cc3ccc4O)[C@H](O)c3ccc(c(Cl)c3)Oc3cc2cc(c3O[C@@H]2O[C@H](CO)[C@@H](O)[C@H](O)[C@H]2O[C@H]2C[C@](C)(N)[C@H](O)[C@H](C)O2)Oc2ccc(cc2Cl)[C@H]1O` [Vancomycin], for which, in [1] (Leuconostoc mesenteroides), the MIC is over 128 µg/mL.

Consider `CN(C)[C@@H]1C(O)=C(C(N)=O)C(=O)[C@@]2(O)C(O)=C3C(=O)c4c(O)cccc4[C@@](C)(O)[C@H]3C[C@@H]12` [Tetracycline], for which the MIC in [9] was over 128 µg/mL.

`CC1(C)S[C@@H]2[C@H](NC(=O)[C@H](N)c3ccc(O)cc3)C(=O)N2[C@H]1C(=O)O` [Amoxicillin] displayed an MIC in the experiment on Bacillus subtilis of over 128 µg/mL.

As to `CN(C)C(=N)N=C(N)N` [Metformin], the “activity alone on cancer cells” value in [10] is listed as “did not show any significant activity”.

As for `N[C@H]1C(O)O[C@H](CO)[C@@H](O)[C@@H]1O` (stereo partly drawn) [Glucosamine], in experiment [10], the “activity alone on cancer cells” value is reported as “did not show any significant activity”.
